US20090301508A1, “Cosmetic Composition and Preparation Method and Use Thereof” (priority 2006, published 2009)
Structures can show the parent of a compound that is named as a salt.

How the values were obtained:
[1] = tested on: philo-pleochromatic akaryocytes in animal marrow; assay: Micronucleus Test; type: in vivo, mice; details: positive control 40 mg/kg; for Micronucleated Cells No.: 5000 cells tested
Description: 2.2 Preparation of sample: Sample 5000, 2500 or 1250 mg was weighted and grinded. Distilled water was added into the grinded sample to 20 ml, and the mixture was blended sufficiently to form a test sample.
2.3 Animal subject: Kunming species of mice, 25-30 g, provided by experimental animal department, Fudan University. Certificate No.: 02-22-1.
2.5.1 Animals were divided randomly into 5 groups, 10 in each group with half of female and half of male. In the five groups, there were three groups for three doses of test sample, one negative control group, distilled water, and one positive control group, cyclophosphaide.
2.5.2. Animals were weighted and administrated with the test sample or control substances in different concentrations in a volume of 0.4 ml/20 g via an intragastric catheter, and the administration is repeated once more in 30 hr.
2.5.3 Animals were sacrificed via cervical bertebra dislocation 6 hr. after the second intragastric administration. The marrow was taken out of the femoral bone and blended uniformly with calf serum. Then, the film preparation, the fixation, and Giemasa stain were undertaken conventionally.
2.5.4 Test under microscope: Numbers of micronuclei were counted in over one thousand of philo-pleochromatic akaryocytes. Incidence rates of micronuclei were calculated and analyzed statistically.

spermatozoa = assay: Teratospermia Test; type: in vivo, mice; details: positive control 40 mg/kg
Description: 3.2 Preparation of sample: Sample 5000, 2500 or 1250 mg was weighted and grinded. Distilled water was added into the grinded sample to 20 ml, and the mixture was blended sufficiently to obtain a test sample.
3.3 Animal subject: Male mice, depuratory grade, 25-30 g, provided by experimental animal department, Fudan University. Certificate No.: 02-22-1.
3.5.1 Animals were divided randomly into 5 groups, 5 in each group. It the five groups, there were three groups for three doses of test sample, one negative control group, distilled water, and one positive control group, cyclophosphaide.
3.5.2. Animals were weighted and administrated with the test sample or control substances in different concentrations in a volume of 0.4 ml/20 g via an intragastric catheter, once a day for 5 days.
3.5.3 Animals were sacrificed via cervical bertebra dislocation 35 days after the first intragastric administration. The ambo-epididymises were taken off and put into normal saline. After being cut into pieces, they were filtered through a four layer gauze. The filter was smeared, fixed and dyed with 2% eosin.
3.5.4 Test under microscope: Amounts of teratosperm in 1000 spernatozoas were counted per mouse and rates of teratospermia were calculated statistically.

M cells = assay: tissue culture experiments, growth of M cells / collagen fiber network; type: cell-based; details: vs control group (P>0.05)
Excerpt: The difference in comparison with the control group is statistically significant ([…]).

TA102 = assay: AmesTest, strain TA102
Description: (§1) 4.3 Sample processing and preparation: 4000 mg sample was weighted and distilled water was added into the sample to 20 ml, then the mixture was blended to obtain a 200 mg/ml of solution. 3, 1, 0.3 and 0.1 mL of this solution were taken, respectively and each was added with sterile distilled water to 10 ml to obtain a solution in the concentration of 60 mg/ml, 20 mg/ml, 6 mg/ml and 2 mg/ml, respectively.
(§2) 4.4 Test doses: 0.2 mg/dish, 0.6 mg/dish, 2 mg/dish, 6 mg/dish and 20 mg/dish
(§3) 4.7 Test strains: TA97, TA98, TA100 and TA102, with qualitied biological characters, provided by Biochemistry Dept., California University, CA, America. The concentration of the bacteria liquid used for the test was 1-2×10^9/ml.
A healthy adult SD rat with a body weight of about 150 g was selected. Polychlorinatedbiphenyl was dissolved into corn oil to obtain a solution of 200 mg/ml. The above solution was injected (i.p.), in a sterile operation, into the rat in a dose of 500 mg/kg. 5 days later, the animal was sacrificed via decapitation. The liver was taken out and weighted, then rinsed several times with 0.15 mol/L of fresh cooled solution of potassium chloride. The amount of the potassium chloride solution was 3 ml/g liver (wet weight). The beaker in which the rinsed liver put was removed into an ice bath, and the liver was cut into pieces with a pair of sterilized scissors. The liver was homogenized with a tissue homogenizer (2000 r/min, 1 min), then the liver homogenate thus prepared was centrifuged in a high speed centrifuge (0-4° C., 9000 g, 10 min). The supernatant, S9 part, was packed into several sterile tubes and conserved in liquid nitrogen. The above steps need to be operated in a sterile and cooled local circumstance. The S9 thus prepared was further identified for its content of protein and bioactivity of indirect mutagen.
Standard plate incorporation on the basis of GB15193-94: Into the top agar (45° C., 2 ml), the bacterial liquid 0.1 ml, Sample 0.1 ml and S9 mixture 0.5 ml for activation were added sequently. The mixture was blended sufficiently and poured rapidly onto the underlayer medium. After the incubation of 48 hr. at 37° C., results were observed. each test was repeated once more.

TA100 = assay: AmesTest, strain TA100
Description: as §1, §2, §3
A healthy adult SD rat with a body weight of about 150 g was selected. Polychlorinatedbiphenyl was dissolved into corn oil to obtain a solution of 200 mg/ml. The above solution was injected (i.p.), in a sterile operation, into the rat in a dose of 500 mg/kg. 5 days later, the animal was sacrificed via decapitation. The liver was taken out and weighted, then rinsed several times with 0.15 mol/L of fresh cooled solution of potassium chloride. The amount of the potassium chloride solution was 3 ml/g liver (wet weight). The beaker in which the rinsed liver put was removed into an ice bath, and the liver was cut into pieces with a pair of sterilized scissors. […]

[2] = Salmonella typhimurium, 48 h, 1 μl/dish

O=P1(N(CCCl)CCCl)NCCCO1 (stereo not shown) [Cyclophosphaide]
Rate of Micronuclei (‰) ([1]; F): 25.8 ‰
Micronucleated Cells No. ([1]; F): 129
Rate of Micronuclei (‰) ([1]; M): 26.4 ‰
Micronucleated Cells No. ([1]; M): 132
Aberration rate (‰) (spermatozoa): 58.4 ‰
Type of aberration (n): Banana sharp (spermatozoa; 5000 spernatozoa tested): 32
Type of aberration (n): Double head (spermatozoa; 5000 spernatozoa tested): 4
Type of aberration (n): Double tail (spermatozoa; 5000 spernatozoa tested): 6
Type of aberration (n): Fat head (spermatozoa; 5000 spernatozoa tested): 45
Type of aberration (n): Fold tail (spermatozoa; 5000 spernatozoa tested): 2
Type of aberration (n): No crook (spermatozoa; 5000 spernatozoa tested): 28
Type of aberration (n): amorphism (spermatozoa; 5000 spernatozoa tested): 175

C[C@@H]1O[C@@H](O[C@@H]2[C@@H](O)[C@H](OCCc3ccc(O)c(O)c3)O[C@H](CO)[C@H]2OC(=O)/C=C/c2ccc(O)c(O)c2)[C@H](O)[C@H](O)[C@H]1O [acteoside, Acteoside]
promotion on the growth of M cells (M cells): obvious promotion

O=C1c2cccc(O)c2C(=O)c2c(O)cccc21 [1,8-dioxy anthraquinone]
Re-established colonies (TA102; first test, TA102 +S9, positive control 50 μl/dish): 885 ± 56 colonies/sish
Re-established colonies (TA102; second test, TA102 +S9, positive control 50 μl/dish): 975 ± 86 colonies/sish

COS(C)(=O)=O [Methyl mesylate]
Re-established colonies (TA100; [2]): 1641 ± 80 colonies/sish
Re-established colonies (TA100; first test, TA100 −S9, positive control 1 μl/dish): 1463 ± 84 colonies/sish
Re-established colonies (TA102; [2]): 2520 ± 112 colonies/sish
Re-established colonies (TA102; first test, TA102 −S9, positive control 1 μl/dish): 2784 ± 289 colonies/sish
